Test results as given in the NIST ThermoML archive (doi:10.1016/j.jct.2011.01.014).
± gives the expanded uncertainty stated by the source.

Experiment: xn = mol fraction of the nth substance listed
Conditions: 101 kPa, Liquid; for speed of sound: sound velocity cell; for mass density: Vibrating tube method

CC(=O)[O-].[NH3+]CCO [2-hydroxyethylammonium acetate] + CO
Conditions | mass density [kg/m3] | speed of sound [m/s]
305.65 K, x1 = 0.0492 | – | 1161.1 ± 1.9
305.65 K, x1 = 0.0951 | – | 1224.5 ± 1.7
305.65 K, x1 = 0.1987 | – | 1341 ± 1.7
305.65 K, x1 = 0.29 | – | 1429.3 ± 1.8
305.65 K, x1 = 0.3786 | – | 1500.3 ± 1.9
305.65 K, x1 = 0.4825 | – | 1575.7 ± 2
305.65 K, x1 = 0.6007 | – | 1645.1 ± 2.3
305.65 K, x1 = 0.6711 | – | 1681.8 ± 2.4
305.65 K, x1 = 0.7797 | – | 1700.1 ± 2.6
305.65 K, x1 = 0.8297 | – | 1753.7 ± 2.8
305.65 K, x1 = 0.9328 | – | 1750.5 ± 3
305.65 K, x1 = 1 | – | 1773.4 ± 3.2
308.15 K, x1 = 0.0492 | 832.793 ± 1 | 1153.3 ± 1.9
308.15 K, x1 = 0.0951 | 875.068 ± 0.73 | 1217 ± 1.7
308.15 K, x1 = 0.1987 | 943.548 ± 0.62 | 1334 ± 1.7
308.15 K, x1 = 0.29 | 988.497 ± 0.53 | 1422.7 ± 1.8
308.15 K, x1 = 0.3786 | 1021.52 ± 0.55 | 1494 ± 1.9
308.15 K, x1 = 0.4825 | 1053.6 ± 0.71 | 1569.6 ± 2
308.15 K, x1 = 0.6007 | 1081.57 ± 1 | 1639.2 ± 2.3
308.15 K, x1 = 0.6711 | 1095.97 ± 1.2 | 1675.9 ± 2.4
308.15 K, x1 = 0.7797 | 1114.95 ± 1.6 | 1694.5 ± 2.6
308.15 K, x1 = 0.8297 | 1122.74 ± 1.8 | 1748 ± 2.8
308.15 K, x1 = 0.9328 | 1136.52 ± 2.2 | 1744.9 ± 3
308.15 K, x1 = 1 | 1143.39 ± 2.5 | 1767.9 ± 3.2
310.65 K, x1 = 0.0492 | 830.575 ± 1 | 1145.6 ± 1.9
310.65 K, x1 = 0.0951 | 872.975 ± 0.73 | 1209.6 ± 1.7
310.65 K, x1 = 0.1987 | 941.654 ± 0.62 | 1327 ± 1.7
310.65 K, x1 = 0.29 | 986.73 ± 0.53 | 1416 ± 1.8
310.65 K, x1 = 0.3786 | 1019.84 ± 0.55 | 1487.6 ± 1.9
310.65 K, x1 = 0.4825 | 1052.01 ± 0.71 | 1563.5 ± 2
310.65 K, x1 = 0.6007 | 1080.07 ± 0.99 | 1633.3 ± 2.3
310.65 K, x1 = 0.6711 | 1094.53 ± 1.2 | 1670.1 ± 2.4
310.65 K, x1 = 0.7797 | 1113.51 ± 1.6 | 1689 ± 2.6
310.65 K, x1 = 0.8297 | 1121.32 ± 1.8 | 1742.3 ± 2.8
310.65 K, x1 = 0.9328 | 1135.08 ± 2.2 | 1739.3 ± 3
310.65 K, x1 = 1 | 1141.96 ± 2.5 | 1762.5 ± 3.2
313.15 K, x1 = 0.0492 | 828.348 ± 1 | 1137.8 ± 1.9
313.15 K, x1 = 0.0951 | 870.876 ± 0.74 | 1202.1 ± 1.7
313.15 K, x1 = 0.1987 | 939.757 ± 0.62 | 1320 ± 1.7
313.15 K, x1 = 0.29 | 984.961 ± 0.53 | 1409.3 ± 1.8
313.15 K, x1 = 0.3786 | 1018.17 ± 0.55 | 1481.3 ± 1.9
313.15 K, x1 = 0.4825 | 1050.42 ± 0.71 | 1557.5 ± 2
313.15 K, x1 = 0.6007 | 1078.57 ± 0.99 | 1627.4 ± 2.3
313.15 K, x1 = 0.6711 | 1093.07 ± 1.2 | 1664.3 ± 2.4
313.15 K, x1 = 0.7797 | 1112.05 ± 1.6 | 1683.4 ± 2.6
313.15 K, x1 = 0.8297 | 1119.91 ± 1.8 | 1736.7 ± 2.8
313.15 K, x1 = 0.9328 | 1133.64 ± 2.2 | 1733.8 ± 3
313.15 K, x1 = 1 | 1140.55 ± 2.5 | 1757.2 ± 3.2
315.65 K, x1 = 0.0492 | 826.113 ± 1.1 | 1130.1 ± 1.9
315.65 K, x1 = 0.0951 | 868.768 ± 0.74 | 1194.7 ± 1.7
315.65 K, x1 = 0.1987 | 937.855 ± 0.62 | 1313.1 ± 1.7
315.65 K, x1 = 0.29 | 983.188 ± 0.53 | 1402.7 ± 1.8
315.65 K, x1 = 0.3786 | 1016.49 ± 0.55 | 1475 ± 1.9
315.65 K, x1 = 0.4825 | 1048.81 ± 0.71 | 1551.4 ± 2
315.65 K, x1 = 0.6007 | 1077.07 ± 0.99 | 1621.4 ± 2.3
315.65 K, x1 = 0.6711 | 1091.61 ± 1.2 | 1658.5 ± 2.4
315.65 K, x1 = 0.7797 | 1110.6 ± 1.6 | 1678 ± 2.6
315.65 K, x1 = 0.8297 | 1118.54 ± 1.8 | 1731.2 ± 2.8
315.65 K, x1 = 0.9328 | 1132.26 ± 2.2 | 1728.4 ± 3
315.65 K, x1 = 1 | 1139.18 ± 2.5 | 1751.9 ± 3.2
318.15 K, x1 = 0.0492 | 823.867 ± 1.1 | 1122.4 ± 1.9
318.15 K, x1 = 0.0951 | 866.652 ± 0.74 | 1187.2 ± 1.7
318.15 K, x1 = 0.1987 | 935.943 ± 0.63 | 1306 ± 1.7
318.15 K, x1 = 0.29 | 981.405 ± 0.53 | 1396.1 ± 1.8
318.15 K, x1 = 0.3786 | 1014.8 ± 0.55 | 1468.6 ± 1.9
318.15 K, x1 = 0.4825 | 1047.21 ± 0.71 | 1545.3 ± 2
318.15 K, x1 = 0.6007 | 1075.56 ± 0.98 | 1615.5 ± 2.3
318.15 K, x1 = 0.6711 | 1090.14 ± 1.2 | 1652.7 ± 2.4
318.15 K, x1 = 0.7797 | 1109.14 ± 1.6 | 1672.5 ± 2.6
318.15 K, x1 = 0.8297 | 1117.15 ± 1.7 | 1725.7 ± 2.8
318.15 K, x1 = 0.9328 | 1130.88 ± 2.2 | 1723 ± 3
318.15 K, x1 = 1 | 1137.82 ± 2.5 | 1746.5 ± 3.2
320.65 K, x1 = 0.0492 | 821.611 ± 1.1 | 1114.8 ± 1.9
320.65 K, x1 = 0.0951 | 864.531 ± 0.74 | 1179.8 ± 1.7
320.65 K, x1 = 0.1987 | 934.029 ± 0.63 | 1299.1 ± 1.7
320.65 K, x1 = 0.29 | 979.623 ± 0.53 | 1389.4 ± 1.8
320.65 K, x1 = 0.3786 | 1013.12 ± 0.55 | 1462.3 ± 1.9
320.65 K, x1 = 0.4825 | 1045.59 ± 0.7 | 1539.3 ± 2
320.65 K, x1 = 0.6007 | 1074.05 ± 0.98 | 1609.6 ± 2.3
320.65 K, x1 = 0.6711 | 1088.66 ± 1.2 | 1646.9 ± 2.4
320.65 K, x1 = 0.7797 | 1107.66 ± 1.6 | 1667 ± 2.6
320.65 K, x1 = 0.8297 | 1115.77 ± 1.7 | 1720.2 ± 2.8
320.65 K, x1 = 0.9328 | 1129.49 ± 2.2 | 1717.6 ± 3
320.65 K, x1 = 1 | 1136.45 ± 2.5 | 1741.3 ± 3.2
323.15 K, x1 = 0.0492 | 819.344 ± 1.1 | 1107 ± 2
323.15 K, x1 = 0.0951 | 862.394 ± 0.76 | 1172.3 ± 1.7
323.15 K, x1 = 0.1987 | 932.105 ± 0.64 | 1292.1 ± 1.8
323.15 K, x1 = 0.29 | 977.831 ± 0.54 | 1382.7 ± 1.8
323.15 K, x1 = 0.3786 | 1011.42 ± 0.55 | 1455.9 ± 1.9
323.15 K, x1 = 0.4825 | 1043.94 ± 0.7 | 1533.2 ± 2
323.15 K, x1 = 0.6007 | 1072.54 ± 0.98 | 1603.7 ± 2.3
323.15 K, x1 = 0.6711 | 1087.18 ± 1.2 | 1641.1 ± 2.4
323.15 K, x1 = 0.7797 | 1106.19 ± 1.5 | 1661.7 ± 2.7
323.15 K, x1 = 0.8297 | 1114.37 ± 1.7 | 1714.7 ± 2.8
323.15 K, x1 = 0.9328 | 1128.1 ± 2.2 | 1712.3 ± 3
323.15 K, x1 = 1 | 1135.08 ± 2.5 | 1736 ± 3.2
